Consider 10 compounds from US20240199587A1, “HETEROCYCLIC COMPOUNDS” (Hoffmann-La Roche Inc., priority 2021, published 2024).

This assay deals with T1, MAGL (Homo sapiens, UniProt Q99685).
T1 sequence (Q99685 1-303): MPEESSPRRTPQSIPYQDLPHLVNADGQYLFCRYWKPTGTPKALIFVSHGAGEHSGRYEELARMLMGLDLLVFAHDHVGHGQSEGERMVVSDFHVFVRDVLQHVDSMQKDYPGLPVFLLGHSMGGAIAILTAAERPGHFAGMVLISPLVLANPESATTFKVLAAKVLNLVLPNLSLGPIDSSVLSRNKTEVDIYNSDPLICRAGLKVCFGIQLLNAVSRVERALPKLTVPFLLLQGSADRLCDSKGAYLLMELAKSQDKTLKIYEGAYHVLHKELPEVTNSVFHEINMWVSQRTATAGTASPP
Briefly: 2-AG assay (MAGL inhibitory activity, hydrolysis of 2-arachidonoylglycerol to arachidonic acid followed by mass spectrometry). The format is biochemical. The note with it: 8 μM 2-arachidonoylglycerol, 15 min pre-incubation, 30 min incubation at RT, RapidFire MS readout. The gist of the method:
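Arachidonic acid released from 8 μM 2-arachidonoylglycerol was quantified by online SPE triple-quadrupole MS (negative ESI, 303.1→259.1), normalised to d8-arachidonic acid internal standard. Reaction ran 30 min at RT after 15 min RT compound pre-incubation with […] MAGL in TRIS/EDTA/Tween-20 buffer, 2.5% DMSO.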
`O=C(N1CC2(CCN(Cc3ccc(C(F)(F)F)nc3)CC2)C1)N1CC2(CC(n3cnc(C4CC4)n3)C2)C1` [Example 464, [6-(3-cyclopropyl-1,2,4-triazol-1-yl)-2-azaspiro[3.3]heptan-2-yl]-[7-[[6-(trifluoromethyl)-3-pyridyl]methyl]-2,7-diazaspiro[3.5]nonan-2-yl]methanone] returned an IC50 of 5.05 nM.

`O=C(N1CC2(CC(CNC3(C(F)(F)F)COC3)C2)C1)N1CC2(CC(n3cnc(C4CC4)n3)C2)C1` [Example 465, [6-(3-cyclopropyl-1,2,4-triazol-1-yl)-2-azaspiro[3.3]heptan-2-yl]-[6-[[[3-(trifluoromethyl)oxetan-3-yl]amino]methyl]-2-azaspiro[3.3]heptan-2-yl]methanone]: half-maximal inhibition (IC50) was put at 3.17 nM. In turn, `O=C(N1CC(c2ccc(-c3nnc(C4(C(F)(F)F)CC4)[nH]3)cc2)C1)N1CC2(CC(n3cnc(C4CC4)n3)C2)C1` [Example 466, [6-(3-cyclopropyl-1,2,4-triazol-1-yl)-2-azaspiro[3.3]heptan-2-yl]-[3-[4-[5-[1-(trifluoromethyl)cyclopropyl]-4H-1,2,4-triazol-3-yl]phenyl]azetidin-1-yl]methanone] came in with an IC50 of 1.17 nM. `O=C(N1CC(c2ccc(-c3n[nH]c(C4CC4)n3)cc2)C1)N1CC2(CC(n3cnc(C4CC4)n3)C2)C1` [Example 467, [6-(3-cyclopropyl-1,2,4-triazol-1-yl)-2-azaspiro[3.3]heptan-2-yl]-[3-[4-(5-cyclopropyl-1H-1,2,4-triazol-3-yl)phenyl]azetidin-1-yl]methanone] yielded an IC50 of 2.36 nM.

`CS(=O)(=O)c1cc(F)cc(CC2CC3(C2)CN(C(=O)N2CC4(CC(n5cnc(C6CC6)n5)C4)C2)C3)c1` [Example 468, [6-(3-cyclopropyl-1,2,4-triazol-1-yl)-2-azaspiro[3.3]heptan-2-yl]-[6-[(3-fluoro-5-methylsulfonyl-phenyl)methyl]-2-azaspiro[3.3]heptan-2-yl]methanone] gave a half-inhibitory concentration (IC50) of 0.15 nM. Compound `O=C(N1CC2(CC(n3cnc(C4CC4)n3)C2)C1)N1CC2(CN(Cc3ccc(S(=O)(=O)C(F)(F)F)cc3)C2)C1` [Example 469, [6-(3-cyclopropyl-1,2,4-triazol-1-yl)-2-azaspiro[3.3]heptan-2-yl]-[6-[[4-(trifluoromethylsulfonyl)phenyl]methyl]-2,6-diazaspiro[3.3]heptan-2-yl]methanone] gave an IC50 of 0.48 nM. Regarding `O=C(N1CC(c2cnc(NCC3(C(F)(F)F)CC3)cn2)C1)N1CC2(CC(n3cnc(C4CC4)n3)C2)C1` [Example 470, [6-(3-cyclopropyl-1,2,4-triazol-1-yl)-2-azaspiro[3.3]heptan-2-yl]-[3-[5-[[1-(trifluoromethyl)cyclopropyl]methylamino]pyrazin-2-yl]azetidin-1-yl]methanone], the IC50 is 0.42 nM. With `O=C(N1CC(c2ccc(-c3n[nH]c(C4CCC4)n3)cc2)C1)N1CC2(CC(n3cnc(C4CC4)n3)C2)C1` [Example 471, [3-[4-(5-cyclobutyl-1H-1,2,4-triazol-3-yl)phenyl]azetidin-1-yl]-[6-(3-cyclopropyl-1,2,4-triazol-1-yl)-2-azaspiro[3.3]heptan-2-yl]methanone], the IC50 is 0.69 nM. For `O=C(N1CC2(CC(n3cnc(C4CC4)n3)C2)C1)N1CC2(CN(Cc3ccc(C(F)(F)F)nn3)C2)C1` [Example 472, [6-(3-cyclopropyl-1,2,4-triazol-1-yl)-2-azaspiro[3.3]heptan-2-yl]-[6-[[6-(trifluoromethyl)pyridazin-3-yl]methyl]-2,6-diazaspiro[3.3]heptan-2-yl]methanone] the value was 45.3 nM.

The compound `O=C(N1CC2(CC(n3cnc(C4CC4)n3)C2)C1)N1CC2(CN(Cc3cnc(C(F)(F)F)cn3)C2)C1` [Example 473, [6-(3-cyclopropyl-1,2,4-triazol-1-yl)-2-azaspiro[3.3]heptan-2-yl]-[6-[[5-(trifluoromethyl)pyrazin-2-yl]methyl]-2,6-diazaspiro[3.3]heptan-2-yl]methanone] registered an IC50 of 11.4 nM.
